Experimental findings from US20120282346A1, “BRIMONIDINE COMPOSITIONS FOR TREATING ERYTHEMA” (priority 2007, published 2012) are described below.

For the experiment, the system named is erythema. To be noted: high dosage gel (0.20% by weight brimonidine tartrate), applied topically each day for 28 days; across all visits (days 1, 14, 28), evaluated up to eight hours; patients with moderate to severe erythema; p<0.001. On the procedure:
A double-blind, placebo-controlled study was conducted at six centers of 110 patients with moderate to severe erythema. […] On days 1, 14, and 28, patients applied the gel under the supervision of clinical staff in the study centers, and were evaluated at set intervals for up to eight hours.
Evaluation led to a Clinician's Erythema Assessment Score (CEA). Each patients' erythema was rated on a scale from 0 to 4, with 0 being the rating for no erythema and 4 being the rating for extreme erythema.
Also, a side effect profile was established.

On to `Brc1c(N=C2NCCN2)ccc2nccnc12.O=C(O)C(O)C(O)C(=O)O` [brimonidine tartrate, 5-bromo-6-(2-imidazolidinylideneamino) quinoxaline L-tartrate], for which the “reduction in the average CEA (Clinician's Erythema Assessment Score, scale 0 to 4)” value is “statistically significant reduction”.
